{
  "source": "ChEMBL document CHEMBL5390301",
  "about": "“Fragment-Based Screening Identifies New Quinazolinone-Based Inositol Hexakisphosphate Kinase (IP6K) Inhibitors” (ACS Med Chem Lett, 2023)",
  "data": [
    {"biological_target": "T1, Inositol hexakisphosphate kinase 2 (Homo sapiens, UniProt Q9UHH9)", "T1 sequence (Q9UHH9 whole entry)": "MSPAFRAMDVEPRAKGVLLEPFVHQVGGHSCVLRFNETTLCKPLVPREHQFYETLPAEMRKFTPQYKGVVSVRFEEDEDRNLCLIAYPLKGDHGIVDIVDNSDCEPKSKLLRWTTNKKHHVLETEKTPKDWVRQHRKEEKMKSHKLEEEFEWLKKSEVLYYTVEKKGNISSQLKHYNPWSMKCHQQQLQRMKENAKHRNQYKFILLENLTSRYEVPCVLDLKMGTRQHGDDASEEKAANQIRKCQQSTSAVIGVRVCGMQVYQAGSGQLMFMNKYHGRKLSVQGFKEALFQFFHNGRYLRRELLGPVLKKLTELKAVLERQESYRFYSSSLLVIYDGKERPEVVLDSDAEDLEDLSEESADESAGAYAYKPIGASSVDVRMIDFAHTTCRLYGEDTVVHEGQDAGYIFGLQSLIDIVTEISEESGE", "test": "Inhibition of IP6K2 (unknown origin) incubated for 2 hrs in presence of ATP by ADPGlo reagent based assay", "units": {"IC50": "µM"}, "values": [
      {"smiles": "N#Cc1cc(N2CCCC2)cc2c(=O)[nH]cnc12", "IC50": 28.8},
      {"smiles": "O=c1[nH]cnc2ccc(N3C[C@H]4CCCC[C@H]4C3)cc12", "IC50": "> 200"},
      {"smiles": "O=c1[nH]cnc2ccc(/C=C/c3ccc(F)cc3)cc12", "IC50": "> 200"},
      {"smiles": "O=c1[nH]cnc2ccc(N3CCCC3)cc12", "IC50": "> 200"},
      {"smiles": "O=c1[nH]cnc2ccc(N3CCc4ccccc4CC3)cc12", "IC50": "> 200"},
      {"smiles": "O=c1[nH]cnc2ccc(/C=C/c3ccccc3)cc12", "IC50": 193},
      {"smiles": "O=c1[nH]cnc2ccc(N3CC[C@H]4CCCC[C@@H]4C3)cc12", "IC50": 91.9},
      {"smiles": "O=c1[nH]cnc2ccc(CCc3ccccc3)cc12", "IC50": 51.5},
      {"smiles": "O=c1[nH]cnc2ccc(C#Cc3ccccc3)cc12", "IC50": 96.3},
      {"smiles": "O=c1[nH]cnc2ccc(C3=Cc4ccccc4C3)cc12", "IC50": "> 200"}
    ]},
    {"biological_target": "Inositol hexakisphosphate kinase 1 (Homo sapiens, UniProt Q92551)", "sequence (Q92551 whole entry)": "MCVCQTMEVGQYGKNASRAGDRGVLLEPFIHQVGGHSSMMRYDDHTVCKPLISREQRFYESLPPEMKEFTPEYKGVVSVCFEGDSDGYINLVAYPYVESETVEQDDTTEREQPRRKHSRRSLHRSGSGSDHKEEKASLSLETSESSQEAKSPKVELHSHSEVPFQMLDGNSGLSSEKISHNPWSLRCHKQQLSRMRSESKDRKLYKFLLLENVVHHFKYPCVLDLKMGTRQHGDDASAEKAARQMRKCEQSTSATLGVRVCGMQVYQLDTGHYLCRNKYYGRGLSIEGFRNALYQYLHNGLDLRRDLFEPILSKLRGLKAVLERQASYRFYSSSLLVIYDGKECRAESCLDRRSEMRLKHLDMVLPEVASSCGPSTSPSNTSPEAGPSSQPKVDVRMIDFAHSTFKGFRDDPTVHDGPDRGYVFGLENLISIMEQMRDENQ", "test": "Inhibition of IP6K1 (unknown origin) incubated for 30 min in presence of ATP by ADPGlo reagent based assay", "units": {"IC50": "µM"}, "values": [
      {"smiles": "O=c1[nH]cnc2ccc(NCc3ccccc3)cc12", "IC50": 30.7},
      {"smiles": "c1cc2c(cc1N1CCCC1)CNCC2", "IC50": "> 200"},
      {"smiles": "O=c1[nH]cnc2ccc(N3CCCC3)c(Br)c12", "IC50": "> 200"},
      {"smiles": "CN(C)C1CCN(c2ccc3nc[nH]c(=O)c3c2)CC1", "IC50": "> 200"},
      {"smiles": "O=c1[nH]cnc2c(F)cc(N3CCCC3)cc12", "IC50": 6.84},
      {"smiles": "O=c1[nH]cnc2c(Cl)cc(N3CCCC3)cc12", "IC50": 2.25},
      {"smiles": "O=c1[nH]cnc2c(Cl)cc(/C=C/c3ccccc3)cc12", "IC50": "> 200"},
      {"smiles": "O=c1[nH]cnc2c(Cl)cc(N3CCc4ccccc4CC3)cc12", "IC50": "> 200"},
      {"smiles": "O=C1CCNc2ccc(/C=C/c3ccccc3)cc21", "IC50": "> 200"},
      {"smiles": "O=c1[nH]cnc2ccc(N3CCc4ccccc4C3)cc12", "IC50": 1.12},
      {"smiles": "O=c1[nH]cnc2ccc([N+]3=Cc4ccccc4CC3)cc12", "IC50": 2.88},
      {"smiles": "O=c1[nH]cnc2ccc(N3CCCc4ccccc4C3)cc12", "IC50": 0.51},
      {"smiles": "O=c1[nH]cnc2ccc(/C=C/c3ccncc3)cc12", "IC50": 127},
      {"smiles": "O=c1[nH]c(=O)c2cc(N3CCCC3)ccc2[nH]1", "IC50": "> 200"},
      {"smiles": "Cn1cnc2ccc(/C=C/c3ccccc3)cc2c1=O", "IC50": 112},
      {"smiles": "O=c1[nH]cnc2ccc(N3CCCC3)nc12", "IC50": "> 200"},
      {"smiles": "O=C1NCCc2ccc(N3CCCC3)cc21", "IC50": "> 200"},
      {"smiles": "CN1CCN(c2ccc3nc[nH]c(=O)c3c2)CC1", "IC50": "> 200"},
      {"smiles": "O=c1[nH]cnc2ccc([N+]3=Cc4ccccc4CCC3)cc12", "IC50": 45.2},
      {"smiles": "O=c1[nH]cnc2ccc(N3CCCC3)c(Cl)c12", "IC50": "> 200"},
      {"smiles": "Nc1ncnc2ccc(N3CCCC3)cc12", "IC50": 48.9},
      {"smiles": "Cc1nc2ccc(N3CCCC3)cc2c(=O)[nH]1", "IC50": "> 200"},
      {"smiles": "O=c1[nH]cnc2cc(N3CCCC3)c(Br)cc12", "IC50": 47.6},
      {"smiles": "Nc1cc(N2CCCC2)cc2c(=O)[nH]cnc12", "IC50": 189},
      {"smiles": "Cc1nc2ccc(/C=C/c3ccccc3)cc2c(=O)[nH]1", "IC50": 85.3},
      {"smiles": "O=c1[nH]cnc2ccc(N3Cc4cccc(F)c4C3)cc12", "IC50": 1.07},
      {"smiles": "Nc1nc2ccc(N3CCCC3)cc2c(=O)[nH]1", "IC50": "> 200"},
      {"smiles": "Nc1ccc(N2CCCC2)cc1C(=O)O", "IC50": 22.7},
      {"smiles": "O=c1[nH]cnc2ccc(/C=C/c3ccccn3)cc12", "IC50": 32.4},
      {"smiles": "Nc1cc2nc[nH]c(=O)c2cc1N1CCCC1", "IC50": 34.3},
      {"smiles": "O=c1[nH]cnc2ccc(N3CCC(c4ccccc4)CC3)cc12", "IC50": 15.3},
      {"smiles": "O=c1[nH]cnc2cc([N+](=O)[O-])c(N3Cc4ccccc4C3)cc12", "IC50": 2.41},
      {"smiles": "O=C(O)c1cc(/C=C/c2ccccc2)cc2c(=O)[nH]cnc12", "IC50": 67.2},
      {"smiles": "O=S1(=O)NC=Nc2ccc(N3CCCC3)cc21", "IC50": "> 200"},
      {"smiles": "O=C1CCCc2ccc(N3CCCC3)cc21", "IC50": "> 200"},
      {"smiles": "O=c1[nH]cnc2ccc(N3CCCCC3)cc12", "IC50": 25.9},
      {"smiles": "O=c1[nH]cnc2ccc(NC3CCCCC3)cc12", "IC50": 71.5},
      {"smiles": "Cc1cc(F)ccc1-c1cc(O)c2nc[nH]c(=O)c2c1", "IC50": "> 200"},
      {"smiles": "CN(Cc1ccccc1)c1ccc2nc[nH]c(=O)c2c1", "IC50": 15.4},
      {"smiles": "O=c1[nH]cnc2cc(F)c(N3CCCC3)cc12", "IC50": 12.2},
      {"smiles": "O=c1[nH]cnc2cnc(N3CCCC3)cc12", "IC50": 94.4},
      {"smiles": "Nc1cc2nc[nH]c(=O)c2cc1N1Cc2ccccc2C1", "IC50": 0.757},
      {"smiles": "CN(C)c1ccc2nc[nH]c(=O)c2c1", "IC50": 75.4},
      {"smiles": "CN(C)c1cccc(-c2cc(O)c3nc[nH]c(=O)c3c2)c1", "IC50": 37.4},
      {"smiles": "O=c1[nH]cnc2ncc(/C=C/c3ccccc3)cc12", "IC50": 118},
      {"smiles": "O=c1[nH]cnc2c([N+](=O)[O-])cc(N3CCCC3)cc12", "IC50": "> 200"},
      {"smiles": "O=c1[nH]cnc2ccc(OCc3ccccc3)cc12", "IC50": 13.3},
      {"smiles": "CC1(C)C[N+](c2ccc3nc[nH]c(=O)c3c2)=Cc2ccccc21", "IC50": 0.595}
    ]},
    {"test_system": "not listed separately", "test": "Selectivity index, ratio of IC50 for IP6K2 (unknown origin) to ratio of IC50 for IP6K3 (unknown origin)", "values": [
      {"smiles": "O=C(O)c1cccc(-c2oc3cc(O)c(O)cc3c(=O)c2O)c1", "Ratio IC50": 5}
    ]}
  ]
}
